This passage reports IC50 results from patent US7163950B1, “Surfactants as malarial chloroguine resistance reversal agents” (priority 2000, dated 2007).

Read-outs that look alike come from different tables or passages of the source.

For experiment [1], the system named is P. falciparum. Put plainly: microbe, parasite or virus in culture. The conditions noted are these: Plasmodium falciparum, read-out: chloroquine IC50, control (no NPE added), control without NPE, used to calculate the degree of chloroquine resistance.
Protocol: (§1) NPE solutions with increasing average EO content were tested for anti-P. falciparum activity and the IC50S ? of these materials were determined using a non-linear regression analysis.
(§2) P. falciparum cultures were grown in A+ blood obtained by venipuncture of volunteers. Cultures of the laboratory lines ItG and 3D7 [Dolan, 1993] and the patient isolates were maintained by the method of Trager and Jensen [Trager, 1976] using RPMI 1640 supplemented with 10% human serum and 50 μM hypoxanthine. […] In vitro drug susceptibility testing was performed using the WHO In Vitro Micro Test (Mark III) [1997]. The IC50 values were determined using a non-linear regression analysis of the dose-response curve.
Experiment [2] relates to P. falciparum. The conditions noted are these: read-out: chloroquine IC50, control (no NPE added); control without NPE, used to calculate the degree of chloroquine resistance.
Protocol: as §1, §2

For orientation: IC50 means the midpoint of a concentration-inhibition curve. `CCN(CC)CCCC(C)Nc1ccnc2cc(Cl)ccc12` (centres unmarked) [chloroquine]: the IC50 in experiment [1] was 240 ± 60 nM; in experiment [2], 274 ± 56 nM.
